These results are taken from patent US20210145802A1, “THERAPY FOR OPHTHALMOLOGICAL CONDITIONS” (WREN THERAPEUTICS LIMITED, priority 2018, published 2021).

For one assay, the target named is T1, Aβ42 (Homo sapiens, UniProt P05067).
T1 construct: […]; made in house; host or cells: E. coli BL21 Gold (DE3)
Kind of assay: Aβ42 aggregation kinetics in human CSF. It counts as biochemical. To be noted: 66% CSF; 1.25 and 5-fold excess. As to the method: For the experiments of Aβ42 aggregation kinetics in human CSF, monomeric solutions of 3 μM Aβ42 were prepared similar to above with the only exception that the buffer was 20 mM Hepes, pH 8 supplemented with 1 mM CaCl2 at 150 mM NaCl. The obtained monomer was diluted with the […] in order to reach 66% final concentration of CSF, in which the effect of CSF is close to maximum. Aβ42 aggregation kinetics were performed in the absence and the presence of 1.25 and 5-fold excess of Netoglitazone.

A further assay concerns GMC101 (Aβ worms). Kind of assay: NIAD-4 plaque staining in living Aβ worms. The format is in vivo, C. elegans. Here is the method: Plaques staining was carried out as previously described (J. Habchi et al. (2016); M. Perni et al., A natural product inhibits the initiation of α-synuclein aggregation & suppresses its toxicity. Proc. Natl. Acad. Sci. U.S.A. 114, E1009-E1017 (2017)). Briefly, live transgenic animals were incubated with NIAD-4 over a range of concentrations and times, with 1 μM NIAD-4 (0.1% DMSO in M9 buffer) for 4 hours at room temperature. After staining, animals were allowed to recover on NGM plates for about 24 hours to allow destaining via normal metabolism. Stained animals were mounted on 2% agarose pads containing 40 mM NaN3 as anaesthetic on glass microscope slides for imaging. Images were captured with a Zeiss Axio Observer D1 fluorescence microscope (Carl Zeiss Microscopy GmbH) with a 20× objective and a 49004 ET-CY3/TRITC filter (Chroma Technology Corp). Fluorescence intensity was calculated using ImageJ software (National Institutes of Health) and then normalized as the corrected total cell fluorescence. Only the head region was considered because of the high background signal in the guts. All experiments were carried out in triplicate, and the data from one representative experiment are shown. Statistical significance was determined using t tests.

Assay [1] deals with T2, Aβ42 oligomers (Homo sapiens, UniProt P05067).
T2 construct: […]; made in house; host or cells: E. coli BL21 Gold (DE3)
Kind of assay: ELISA with oligomer-specific antibody. The note with it: 5 μM Aβ42; 5-fold excess; at half-time of aggregation of Aβ42 alone. It counts as biochemical. Here is the method: 20 μl Aliquots were taken at the t50 (i.e. half-time) from aggregation reactions of 5 μM Aβ42 in the absence and in the presence of 5-fold excess of Netoglitazone. Samples were then immobilised on a 96-well Maxisorp ELISA plate (Nunc, Roskilde, Denmark) with no shaking for 1 h at room temperature. The plate was then washed three times with 20 mM Tris pH 7.4, 100 mM NaCl and incubated in 20 mM Tris pH 7.4, 100 mM NaCl, 5% BSA under constant shaking overnight at 4° C. The day after the plate was washed six times with 20 mM Tris pH 7.4, 100 mM NaCl and then incubated with 30 μl solutions of 5 μM oligomer-specific antibody under constant shaking either for 1 hour or overnight at room temperature. At the end of this incubation, the plate was washed six times with 20 mM Tris pH 7.4, 100 mM NaCl and incubated with 30 μl solutions of Rabbit polyclonal to 6× His Tag® HRP conjugated (Abcam, Cambridge, UK) at a dilution of 1:4000 in 20 mM Tris pH 7.4, 100 mM NaCl, 5% BSA under shaking for 1 hour at room temperature. […] Finally, the amount of bound oligomer-specific antibody was quantified by using 1-Step™ Ultra TMB-ELISA Substrate Solution (ThermoFisher Scientific, Waltham, Mass., United States), according to manufacturer instructions, and measuring the absorbance at 450 nm by means of a CLARIOstar plate reader (BMG Labtech, Aylesbury, UK).

The target in the next assay is T3, Aβ42 fibrils (Homo sapiens, UniProt P05067).
T3 construct: […]; made in house; host or cells: E. coli BL21 Gold (DE3)
Kind of assay: Dot-blot assay with fibril-specific OC antibody. It counts as biochemical. To be noted: 2 μM Aβ42; 5-fold excess of compound; eight time points. As to the method:
Blotting was performed using Aβ42 fibril-specific antibody (OC, Millipore). During the time course of the aggregation of a 2 μM Aβ42 in the absence and in the presence of 5-fold excess of Netoglitazone, 4 μL Aβ42 aliquots were removed from the mixture at different time points for blotting with OC. Aβ42 aliquots were spotted onto a nitrocellulose membrane (0.2 μm, Whatman) and then the membranes were dried and then blocked with Blocking One (Nacalai tesque) before immuno-detection. OC was used according to the manufacturer's instructions. Alexa Fluor® 488-conjugated secondary antibodies (Life technologies) were subsequently added and fluorescence detection was performed using Typhoon Trio Imager (GE Healthcare).

In assay [2] the target is T2, Aβ42 oligomers. Kind of assay: Ca2+ influx assay (lipid vesicle disruption by aggregates). The format is biochemical. The note with it: 2 μM Aβ42; 5-fold excess added at 0 h; measured at 2 h. Here is the method:
Single vesicles tethered to PLL-PEG coated borosilicate glass coverslides (VWR International, 22×22 mm, product number 63 1-0122) were placed on an oil immersion objective mounted on an inverted Olympus IX-71 microscope. Each coverslide was affixed at Frame-Seal incubation chambers and was incubated with 50 μL of HEPES buffer of pH 6.5. Just before the imaging, the HEPES buffer was replaced with 50 μL Ca^2+ containing buffer solution L-15. 16 (4×4) images of the coverslide were recorded under three different conditions (background, in the presence of Aβ42 and after addition of ionomycin (Cambridge Bioscience Ltd, Cambridge, UK), respectively). The distance between each field of view was set to 100 μm, and was automated (bean-shell script, Micromanager) to avoid any user bias. After each measurement the script allowed the stage (Prior H117, Rockland, Mass., USA) to move the field of view back to the start position such that identical fields of view could be acquired for the three different conditions. Images of the background were acquired in the presence of L15 buffer. For each field of view 50 images were taken with an exposure time of 50 ms. […] The recorded images were analysed using ImageJ to determine the fluorescence intensity of each spot under the three different conditions in the presence of an aggregation mixture incubated with and without Netoglitazone.

Each structure is given as a SMILES string.

T2 sequence (P05067 671-713): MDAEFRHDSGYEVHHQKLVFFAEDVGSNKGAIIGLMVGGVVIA
T1 sequence (P05067 671-713): as above
T3 sequence (P05067 671-713): as above

As for `O=C1NC(=O)C(Cc2ccc3cc(OCc4ccccc4F)ccc3c2)S1` (stereo not drawn) [Netoglitazone], the “delay of Aβ42 aggregation kinetics in 66% human CSF” value on Aβ42 is recorded as “significantly delayed the aggregation kinetics”. For the same molecule, the “plaques load (NIAD-4 fluorescence)” value in the assay with GMC101 (Aβ worms) (0.5 μM, treatment at L4, day 6 of adulthood) is on record as “significantly decrease the plaques load”. Also, in the assay with GMC101 (Aβ worms) (administered at D3 of adulthood, measured at D6), the “plaques load after late administration” value is listed as “significant decrease of the plaques load”. At Aβ42 oligomers [1], the “Aβ42 oligomer concentration (ELISA)” value is “significant reduction”. Further, on Aβ42 fibrils, the “delay of Aβ42 fibril formation in dot blot assay compared with ThT-based assay” value is “identical within experimental error”. For the same molecule, the “protection against vesicle disruption (Ca2+ influx) by Aβ42 species” value at Aβ42 oligomers [2] is reported as “protected against the neurotoxic species-induced vesicle disruption”.
